Test results: patent publication US8143421B2, “Broadspectrum substituted benzimidazole sulfonamide HIV protease inhibitors” (priority 2002, dated 2012)

Experiments:
mutant D = assay: Antiviral spectrum, fold resistance towards mutant D; type: cell-based; settings: FR=IC50(mutant strain)/IC50(HIV-1 strain LAI)
Procedure: (§1) Because of the increasing emergence of drug resistant HIV strains, the present compounds were tested for their potency against clinically isolated HIV strains harboring several mutations. These mutations are associated with resistance to protease inhibitors and result in viruses that show various degrees of phenotypic cross-resistance to the currently commercially available drugs such as for instance saquinavir, ritonavir, nelfinavir, indinavir and amprenavir. The viral strains R13025, R13027, R13028, R13029, R13034, R13080, T13127 and R13363 contained mutations as indicated below in Table 3.

mock-infected MT4 cells = assay: in vitro
Procedure: (§2) HIV- or mock-infected MT4 cells were incubated for five days in the presence of various concentrations of the inhibitor. […] Cell viability is measured by measuring the concentration of MTT, a yellow, water soluble tetrazolium dye that is converted to a purple, water insoluble formazan in the mitochondria of living cells only. Upon solubilization of the resulting formazan crystals with isopropanol, the absorbance of the solution is monitored at 540 nm. The values correlate directly to the number of living cells remaining in the culture at the completion of the five day incubation. The inhibitory activity of the compound was monitored on the virus-infected cells and was expressed as IC50 and IC90. These values represent the amount of the compound required to protect 50% and 90%, respectively, of the cells from the cytopathogenic effect of the virus. […] The selectivity index (SI) (ratio CC50/IC50) is an indication of the selectivity of the anti-HIV activity of the inhibitor. Wherever results are reported as e.g. pIC50 or pCC50 values, the result is expressed as the negative logarithm of the result expressed as IC50 or CC50 respectively.
(§3) As a measure of the broad spectrum activity of the present compounds, the fold resistance (FR), defined as FR=IC50(mutant strain)/IC50(HIV-1 strain LAI), was determined.

mutant A = type: cell-based; settings: FR=IC50(mutant strain)/IC50(HIV-1 strain LAI)
Procedure: as §2
(§4) Because of the increasing emergence of drug resistant HIV strains, the present compounds were tested for their potency against clinically isolated HIV strains harboring several mutations. […] The viral strains R13025, R13027, R13028, R13029, R13034, R13080, T13127 and R13363 contained mutations as indicated below in Table 3.
as §3

mutant E = type: cell-based; settings: FR=IC50(mutant strain)/IC50(HIV-1 strain LAI)
Procedure: as §2, §4, §3

mutant C = assay: Antiviral spectrum, fold resistance towards mutant C; type: cell-based; settings: FR=IC50(mutant strain)/IC50(HIV-1 strain LAI)
Procedure: as §1

mutant G = assay: Antiviral spectrum, fold resistance towards mutant G; type: cell-based; settings: FR=IC50(mutant strain)/IC50(HIV-1 strain LAI)
Procedure: as §1

HIV-1 strain LAI = assay: Cellular anti-HIV assay, MT4 cells, MTT readout, wild type HIV-1 strain LAI; type: cell-based; settings: for pIC50 (LAI): Table 1, MT4 cells, five days, HIV-1 strain LAI; for WT (pIC50 against wild type HIV-LAI strain): Table 4
Procedure: The compounds of the present invention were examined for anti-viral activity in a cellular assay. […] The cellular assay was performed according to the following procedure.

mutant F = assay: Antiviral spectrum, fold resistance towards mutant F; type: cell-based; settings: FR=IC50(mutant strain)/IC50(HIV-1 strain LAI)
Procedure: as §1

mutant B = assay: Antiviral spectrum, fold resistance towards mutant B; type: cell-based; settings: FR=IC50(mutant strain)/IC50(HIV-1 strain LAI)
Procedure: as §1

mutant H = assay: Antiviral spectrum, fold resistance towards mutant H; type: cell-based; settings: FR=IC50(mutant strain)/IC50(HIV-1 strain LAI)
Procedure: as §1

[1] = pCC50 value as determined with mock transfected cells

| Compound | FR towards mutant D (mutant D) | Tox (pCC50) (mock-infected MT4 cells) | FR value towards mutant A (mutant A) | FR towards mutant E (mutant E) | FR towards mutant C (mutant C) | FR towards mutant G (mutant G) | pIC50 (LAI) (HIV-1 strain LAI) | WT (pIC50 against wild type HIV-LAI strain) (HIV-1 strain LAI) | FR towards mutant F (mutant F) | FR towards mutant B (mutant B) | Tox (pCC50) (mock-infected MT4 cells; [1]) | FR towards mutant H (mutant H) |
| --- | --- | --- | --- | --- | --- | --- | --- | --- | --- | --- | --- | --- |
| CC(=O)Nc1nc2ccc(S(=O)(=O)N(CC(C)C)C[C@@H](O)[C@H](Cc3ccccc3)NC(=O)OC3COC4OCCC34)cc2[nH]1 (stereo partly drawn) [Compound 38] | 0.19 | <4 | 0.12 | 0.17 | 0.39 | 0.60 | 6.7 | 6.7 | 0.21 | 0.32 | – | – |
| CC(C)CN(C[C@@H](O)[C@H](Cc1ccccc1)NC(=O)OCc1cncs1)S(=O)(=O)c1ccc2nc(N)[nH]c2c1 [Compound 57] | 0.34 | <4 | 0.37 | 0.32 | 0.31 | 2.0 | 5.7 | 5.7 | 0.30 | 0.30 | – | – |
| COC(=O)Nc1nc2ccc(S(=O)(=O)N(CC(C)C)C[C@@H](O)[C@H](Cc3ccccc3)NC(=O)COc3c(C)cc(N(C)C)cc3C)cc2[nH]1 [Compound 19] | 3.6 | – | 5.6 | 3.5 | 1.4 | – | 7.5 | 7.5 | 83 | 1.2 | <4 | – |
| [(1S,2R)-2-hydroxy-3-[(2-methylpropyl)[[1-(2-methyl-propyl)benzimidazol-6-yl]sulfonyl]amino]-1-(phenylmethyl)propyl]carbamic acid, [(3R,3aS,6aR)-hexahydrofuro[2,3-b]furan-3-yl]ester [Compound 7] | 1.2 | – | – | 2.1 | 0.45 | 174 | 8.6 | 8.6 | 72 | – | <4 | – |
| CC(C)CN(C[C@@H](O)[C@H](Cc1ccccc1)NC(=O)OCc1cccnc1)S(=O)(=O)c1ccc2nc(N)[nH]c2c1 [Compound 54] | 0.46 | – | 1.6 | 0.42 | 0.42 | – | 5.8 | 5.8 | 1.7 | 0.40 | <4 | – |
| CC(C)CN(C[C@@H](O)[C@H](Cc1ccccc1)NC(=O)O[C@H]1CCOC1)S(=O)(=O)c1ccc2nc(NC(=O)NCCN(C)C)[nH]c2c1 [Compound 52] | 3.0 | <5 | 4.2 | 3.4 | 3.5 | – | 6.1 | 6.1 | 4.3 | 2.9 | – | – |
| COC(=O)Nc1nc2ccc(S(=O)(=O)N(CC(C)C)C[C@@H](O)[C@H](Cc3ccccc3)NC(=O)COc3c(C)cccc3C)cc2[nH]1 [Compound 6] | 2.1 | <4 | 2.9 | 1.6 | 2.7 | 60 | 8.6 | 8.6 | 10 | – | – | – |
| Cc1cccc(C)c1OCC(=O)N[C@@H](Cc1ccccc1)[C@H](O)CN(CC(C)C)S(=O)(=O)c1ccc2nc(N)n(C)c2c1 [Compound 13] | 3.4 | <4 | – | 4.5 | 2.5 | – | 7.7 | 7.7 | – | 3.4 | – | – |
| Cc1cc(OCC(=O)N[C@@H](Cc2ccccc2)[C@H](O)CN(CC(C)C)S(=O)(=O)c2ccc3nc[nH]c3c2)no1 [Compound 49] | – | – | 12 | 1.0 | – | – | 6.3 | 6.3 | – | – | <4 | 3.5 |
| CC(C)CN(C[C@@H](O)[C@H](Cc1ccccc1)NC(=O)OCc1cncs1)S(=O)(=O)c1ccc2nc[nH]c2c1 [Compound 23] | 2.5 | <4 | 7.1 | 4.8 | 3.5 | – | 7.3 | 7.3 | 23 | 2.3 | – | – |
| CC(C)CN(C[C@@H](O)[C@H](Cc1ccccc1)NC(=O)OC1COC2OCCC12)S(=O)(=O)c1ccc2nc(N)[nH]c2c1 (stereo partly drawn) [Compound 59] | – | <4 | 1.5 | 0.31 | – | – | 5.3 | 5.3 | – | – | – | 0.39 |
| CC(C)CN(C[C@@H](O)[C@H](Cc1ccccc1)NC(=O)O[C@H]1CCOC1)S(=O)(=O)c1ccc2ncn(CCc3ccccc3)c2c1 [Compound 15] | 5.4 | – | – | 6.2 | 2.4 | 407 | 7.7 | 7.7 | 269 | 6.3 | 4.2 | – |
| CC(=O)Nc1nc2ccc(S(=O)(=O)N(CC(C)C)C[C@@H](O)[C@H](Cc3ccccc3)NC(=O)O[C@H]3CCOC3)cc2[nH]1 [Compound 27] | – | <4 | 2.7 | 1.1 | – | – | 7.3 | 7.3 | – | – | – | 2.3 |
| Cc1cccc(C)c1OCC(=O)N[C@@H](Cc1ccccc1)[C@H](O)CN(CC(C)C)S(=O)(=O)c1ccc2nc(N)[nH]c2c1 [Compound 36] | – | 4.19 | 4.4 | 3.1 | – | – | 6.5 | 6.5 | – | – | – | 17 |
| COc1ccc(C(=O)Nc2nc3ccc(S(=O)(=O)N(CC(C)C)C[C@@H](O)[C@H](Cc4ccccc4)NC(=O)COc4c(C)cccc4C)cc3[nH]2)cc1 [Compound 37] | 1.9 | – | 1.0 | 1.3 | 0.95 | 21 | 6.9 | 6.9 | 7.9 | 0.35 | – | – |
| Cc1cccc(C)c1OCC(=O)N[C@@H](Cc1ccccc1)[C@H](O)CN(CC(C)C)S(=O)(=O)c1ccc2ncn(C)c2c1 [Compound 31] | – | 4.24 | 13 | 9.5 | – | – | 7.2 | 7.2 | – | – | – | 209 |
| CC(C)CN(C[C@@H](O)[C@H](Cc1ccccc1)NC(=O)OCc1cncs1)S(=O)(=O)c1ccc2ncn(CCc3ccccc3)c2c1 [Compound 34] | – | – | 32 | 17 | – | – | 7.0 | 7.0 | – | – | <4 | 46 |
| COC(=O)Nc1nc2ccc(S(=O)(=O)N(CC(C)C)C[C@@H](O)[C@H](Cc3ccccc3)NC(=O)c3ccc(O)cc3C)cc2[nH]1 [Compound 25] | – | 4.3 | 1.2 | 1.3 | – | – | 7.1 | 7.1 | – | – | – | 4.6 |
| CC(C)CN(C[C@@H](O)[C@H](Cc1ccccc1)NC(=O)O[C@H]1CCOC1)S(=O)(=O)c1ccc2ncn(C)c2c1 [Compound 16] | 5.9 | <4.49 | – | 5.4 | 2.6 | – | 7.7 | 7.7 | 288 | – | – | – |
